According to patent US8318504B2, “MRP2 efflux pathway prognostic method” (priority 2009, dated 2012):

Experiments:
OATP1B3 = target: T1, OATP1B3 (Homo sapiens, UniProt Q9NPD5); assay: Inhibition by CLF of TC transport in CHO cells expressing OATP1B3; format: cell-based; settings: 0, 5 or 50 μmol/L CLF, 10 μmol/L TC
T1 construct: expressed in transfected cells; host or cells: CHO cells (stably transfected; Treiber et al. 2007)
T1 sequence (Q9NPD5 1-702): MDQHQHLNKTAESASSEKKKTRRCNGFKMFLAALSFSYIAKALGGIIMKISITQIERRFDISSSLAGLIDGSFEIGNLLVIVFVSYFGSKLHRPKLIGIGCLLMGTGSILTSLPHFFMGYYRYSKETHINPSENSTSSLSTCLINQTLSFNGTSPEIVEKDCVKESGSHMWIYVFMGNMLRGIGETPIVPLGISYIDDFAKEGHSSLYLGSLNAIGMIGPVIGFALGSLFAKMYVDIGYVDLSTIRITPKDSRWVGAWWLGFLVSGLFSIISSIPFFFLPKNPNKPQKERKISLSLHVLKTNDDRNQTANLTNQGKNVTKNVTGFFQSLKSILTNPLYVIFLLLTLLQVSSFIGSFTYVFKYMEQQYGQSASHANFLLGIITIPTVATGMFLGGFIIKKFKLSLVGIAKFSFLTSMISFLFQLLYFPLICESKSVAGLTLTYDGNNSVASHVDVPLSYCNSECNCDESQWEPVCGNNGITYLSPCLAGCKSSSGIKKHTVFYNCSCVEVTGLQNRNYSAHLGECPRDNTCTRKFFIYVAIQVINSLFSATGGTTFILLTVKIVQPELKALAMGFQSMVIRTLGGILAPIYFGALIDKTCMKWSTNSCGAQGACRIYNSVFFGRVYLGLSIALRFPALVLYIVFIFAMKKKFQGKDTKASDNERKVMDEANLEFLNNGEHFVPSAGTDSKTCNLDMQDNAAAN
Procedure: FIGS. 3A-3D relate to inhibition of transport activity of hepatocellular uptake transporters by CLF. CHO cells expressing NTCP, OATP1B1, OATP1B3 and OATP2B1 were incubated with 0, 5 or 50 μmol/L CLF and with the substrates, 2.5 μmol/L TC, 1 μmol/L estrone-3-sulfate, 10 μmol/L TC and 1 μmol/L estrone-3-sulfate, respectively. Data represent means±SD of triplicate determinations.
For all transport experiments, cells grown on 3 cm culture dishes were cultured for 24 hours in media supplemented with 5 mmol/L sodium-butyrate to increase expression levels of transfected transporters [Palermo D P et al., J Biotechnol 1991 June; 19(1):35-47]. • Transport experiments with uptake of radioactively labeled substrates: These experiments were performed as described by Huber R D et al. [Am J Physiol Cell Physiol 2007 February; 292(2):C795-C806]. • Transport experiments with uptake of CLF: Uptake was performed in the same buffers as for the radioactive substrates above. […] After complete solubilization, 1.5 ml was used to measure fluorescence in a Perkin-Elmer LS-5 luminescence-spectrometer set at λexe 486 nm (slit 10 nm) and λem 520 nm (slit 5 nm). Protein was determined with the bicinchoninic acid method using a kit from Interchim (Montfuçon, France). […]

[1] = ATP-dependent transport of CLF into control wild type Sf21 membrane vesicles; format: biochemical
Procedure: (§1) The production of recombinant baculovirus was as described by de Waart et al. [Liver Int 2006 April; 26(3):362-368]. ABCC3 and ABCG2-recombinant baculovirus were a kind gift from Borst [Breedveld P. et al., Cancer Res 2004 Aug. 15; 64(16):5804-5811 and Borst P. et al., J Biol Chem 2001 Dec. 7; 276(49):46400-46407.]. ABCB11-recombinant baculovirus was a kind gift from Thompson [Thompson R J et al., Gastroenterology 2002 November; 123(5):1649-1658]. Sf21 cells grown at 27° C. were infected with ABCB11, ABCC2, ABCC3 and ABCG2-cDNA containing baculovirus. Cells were harvested at 2-4 days after infection. Membrane vesicle preparation was as described by de Waart et al. [Liver Int 2006 April; 26(3):362-368].
(§2) Transport studies with membrane vesicles were performed using the rapid filtration technique as described by Heijn M et al. [Am J Physiol 1992 January; 262(1 Pt 1):C104-C110]. Radiolabel was measured with a scintillation counter. When CLF was used as a probe, filters were placed in a glass tube, 0.1% Triton-X-100 was added and the tubes vortexed. Samples were pipetted in 96-well plates (Kartell, Noviglio, Italy) and the amount CLF quantitated by measurement of fluorescence at λexe 485 nm and λcm 520 nm using a NovoStar (BMG-labtech, Offenburg, Germany).

ABCC3 = target: T2, ABCC3 (Homo sapiens, UniProt O15438); assay: ATP-dependent transport of CLF into Sf21 membrane vesicles containing ABCC3; format: biochemical
T2 construct: made in house; host or cells: Sf21 insect cells, baculovirus (gift from Borst); plasma membrane vesicles
T2 sequence (O15438 whole entry): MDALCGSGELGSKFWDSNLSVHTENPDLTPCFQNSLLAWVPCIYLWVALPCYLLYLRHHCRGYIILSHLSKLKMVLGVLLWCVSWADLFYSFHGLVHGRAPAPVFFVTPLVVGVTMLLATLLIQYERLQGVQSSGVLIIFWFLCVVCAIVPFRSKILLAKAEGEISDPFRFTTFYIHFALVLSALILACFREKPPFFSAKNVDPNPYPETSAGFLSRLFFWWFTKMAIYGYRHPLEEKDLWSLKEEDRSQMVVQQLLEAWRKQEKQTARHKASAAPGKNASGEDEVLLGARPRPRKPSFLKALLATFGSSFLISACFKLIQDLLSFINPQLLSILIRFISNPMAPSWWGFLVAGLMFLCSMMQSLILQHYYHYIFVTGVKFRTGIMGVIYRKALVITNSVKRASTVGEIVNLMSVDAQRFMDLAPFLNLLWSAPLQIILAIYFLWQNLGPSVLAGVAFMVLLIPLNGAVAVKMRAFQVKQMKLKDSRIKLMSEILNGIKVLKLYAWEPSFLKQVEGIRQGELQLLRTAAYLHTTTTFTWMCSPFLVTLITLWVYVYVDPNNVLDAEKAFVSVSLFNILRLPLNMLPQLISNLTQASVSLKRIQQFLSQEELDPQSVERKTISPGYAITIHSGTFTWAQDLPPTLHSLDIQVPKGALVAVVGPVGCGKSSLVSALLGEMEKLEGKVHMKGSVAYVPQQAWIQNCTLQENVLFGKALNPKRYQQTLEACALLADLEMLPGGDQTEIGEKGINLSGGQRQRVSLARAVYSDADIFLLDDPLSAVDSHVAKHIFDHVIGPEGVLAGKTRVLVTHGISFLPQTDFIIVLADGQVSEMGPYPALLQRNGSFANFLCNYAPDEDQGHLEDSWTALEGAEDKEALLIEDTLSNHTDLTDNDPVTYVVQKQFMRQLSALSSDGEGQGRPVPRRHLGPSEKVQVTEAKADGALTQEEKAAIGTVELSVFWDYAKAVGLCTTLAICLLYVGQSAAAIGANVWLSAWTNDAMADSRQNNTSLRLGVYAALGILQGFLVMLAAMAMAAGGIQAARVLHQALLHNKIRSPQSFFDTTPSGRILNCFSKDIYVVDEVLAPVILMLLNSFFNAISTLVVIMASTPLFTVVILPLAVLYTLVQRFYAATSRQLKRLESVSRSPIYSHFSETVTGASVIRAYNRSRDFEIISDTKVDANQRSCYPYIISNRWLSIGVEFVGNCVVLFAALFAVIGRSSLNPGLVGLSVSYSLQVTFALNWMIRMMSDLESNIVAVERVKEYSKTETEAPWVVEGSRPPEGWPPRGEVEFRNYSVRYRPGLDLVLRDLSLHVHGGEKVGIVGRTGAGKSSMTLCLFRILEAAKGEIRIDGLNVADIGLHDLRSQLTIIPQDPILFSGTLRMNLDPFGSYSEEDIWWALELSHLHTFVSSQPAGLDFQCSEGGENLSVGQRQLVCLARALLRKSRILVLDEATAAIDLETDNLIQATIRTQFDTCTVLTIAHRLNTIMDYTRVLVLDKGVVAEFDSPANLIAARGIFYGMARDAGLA
Procedure: as §1
as §2, with “Germany). […]” for “Germany).”

ABCC2 = target: T3, ABCC2 (Homo sapiens, UniProt Q92887); assay: CLF inhibition of DNP-SG transport into ABCC2 containing Sf21 membrane vesicles; format: biochemical; settings: ATP-dependent transport, read-out: Half maximal inhibition of DNP-SG transport with CLF
T3 construct: made in house; host or cells: Sf21 insect cells, baculovirus; plasma membrane vesicles
T3 sequence (Q92887 whole entry): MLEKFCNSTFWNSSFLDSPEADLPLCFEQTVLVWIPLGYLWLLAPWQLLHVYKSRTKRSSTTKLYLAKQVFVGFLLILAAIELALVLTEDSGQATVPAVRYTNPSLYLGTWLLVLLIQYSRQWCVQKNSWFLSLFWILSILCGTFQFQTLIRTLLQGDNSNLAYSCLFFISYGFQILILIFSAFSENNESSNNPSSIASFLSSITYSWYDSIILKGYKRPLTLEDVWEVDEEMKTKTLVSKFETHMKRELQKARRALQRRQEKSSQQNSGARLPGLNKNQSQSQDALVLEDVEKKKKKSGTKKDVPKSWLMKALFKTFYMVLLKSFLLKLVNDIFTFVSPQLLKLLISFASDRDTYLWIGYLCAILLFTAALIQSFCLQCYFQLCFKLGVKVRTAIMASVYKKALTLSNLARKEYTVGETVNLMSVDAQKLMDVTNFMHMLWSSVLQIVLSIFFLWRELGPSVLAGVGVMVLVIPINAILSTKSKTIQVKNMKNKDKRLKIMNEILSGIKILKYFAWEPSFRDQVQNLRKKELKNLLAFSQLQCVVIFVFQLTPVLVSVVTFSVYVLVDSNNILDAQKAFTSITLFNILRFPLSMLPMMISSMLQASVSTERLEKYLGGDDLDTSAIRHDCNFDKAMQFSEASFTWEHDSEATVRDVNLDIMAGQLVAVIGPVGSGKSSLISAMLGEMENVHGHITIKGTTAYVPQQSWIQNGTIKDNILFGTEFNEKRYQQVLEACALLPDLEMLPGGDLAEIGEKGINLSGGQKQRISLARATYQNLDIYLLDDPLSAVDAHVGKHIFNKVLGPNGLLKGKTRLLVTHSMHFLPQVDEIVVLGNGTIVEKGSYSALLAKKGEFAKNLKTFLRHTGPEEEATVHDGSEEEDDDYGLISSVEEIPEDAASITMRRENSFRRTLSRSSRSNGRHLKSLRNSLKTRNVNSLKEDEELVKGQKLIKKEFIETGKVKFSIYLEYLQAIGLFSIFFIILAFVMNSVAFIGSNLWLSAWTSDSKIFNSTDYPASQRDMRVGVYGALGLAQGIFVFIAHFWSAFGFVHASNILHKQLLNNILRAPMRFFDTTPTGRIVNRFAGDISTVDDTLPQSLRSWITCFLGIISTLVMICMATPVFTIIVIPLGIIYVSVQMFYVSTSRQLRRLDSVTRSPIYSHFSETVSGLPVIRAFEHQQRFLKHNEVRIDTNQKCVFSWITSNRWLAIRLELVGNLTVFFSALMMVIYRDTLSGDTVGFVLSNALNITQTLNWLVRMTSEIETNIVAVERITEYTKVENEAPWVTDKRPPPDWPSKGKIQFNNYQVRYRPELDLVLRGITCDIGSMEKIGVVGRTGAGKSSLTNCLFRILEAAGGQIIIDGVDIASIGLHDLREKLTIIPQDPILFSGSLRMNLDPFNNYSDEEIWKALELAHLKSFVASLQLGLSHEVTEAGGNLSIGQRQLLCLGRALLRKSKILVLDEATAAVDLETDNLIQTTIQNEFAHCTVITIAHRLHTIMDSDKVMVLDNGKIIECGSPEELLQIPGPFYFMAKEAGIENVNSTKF
Procedure: FIGS. 5A and 5B show CLF inhibition of DNP-SG and TC transport into ABCC2 (A) and ABCB11 (B) protein containing Sf21 membrane vesicles respectively. The values are expressed as a percentage of maximal ATP-dependent transport. Significance was tested using two-sided Student's t-test: *P<0.05 for transport in the presence vs. absence of inhibitor.
as §1, with “Membrane vesicle preparation was as described by de Waart et al. [Liver Int 2006 April; 26(3):362-368].” left out
as §2, with “When CLF was used as a probe, filters were placed in a glass tube, 0.1% Triton-X-100 was added and the tubes vortexed.” left out

With `CC(CCC(=O)NC(CCCCNC(=S)Nc1ccc(-c2c3ccc(=O)cc-3oc3cc(O)ccc23)c(C(=O)O)c1)C(=O)O)C1CCC2C3C(O)CC4CC(O)CCC4(C)C3CC(O)C12C` (centres unmarked) [CLF, cholyl lysyl fluorescein] the “inhibition of transport of TC mediated by OATP1B3 by CLF” value (OATP1B3) was “inhibited by CLF in a dose-dependent manner”, the “ATP-dependent uptake of CLF in control vesicles” value [1] was “slight ATP-dependent uptake” and the “Vmax of ABCC3 mediated transport of CLF” value (ABCC3; 30 μg total protein, presence or absence of 4 mmol/L ATP) was 188±55 μmol CLF/mg protein/min. The “CLF transport in ABCC3 containing membrane vesicles” value (ABCC3; compared to control wild type Sf21 membrane vesicles) was “much higher CLF transport rates” and the IC50 (ABCC2) was roughly 1000 nM.
